{"source": "patent US10202604B2", "about": "“Methods of using microRNA-141” (Stemirna Therapeutics Co., Ltd., priority 2016, dated 2019)", "key": {"[1]": {"tested_on": "CD44+ and bulk human prostate cancer (HPCa) cells freshly purified from patient tumors", "assay": "Clonal and sphere formation assays, primary patient cells", "type": "cell-based", "experimental": "Average % of CD44^+ cells (as determined by flow analysis; n=3-5) is indicated for each cell type (UD, undetectable). […] Purified CD44^+ Du145 cells were transfected with NC or miR-141 oligos (30 nM, 48 h) and then plated for clonal (1D & 1E) and sphere (1F) assays. Bars represent mean±SD. *, P<0.05; **, P<0.01. […] Shown are tumor images, cell numbers injected (100,000 cells per injection for all models), site of injection (s.c, subcutaneously) and days (d) when tumors were harvested. Tumor weight and incidences with corresponding P values are also indicated. ns, not significant. […] For 1st generation (1°) sphere assays, 1,000 cells per well were plated in triplicate for each group in 12-well plate and results scored in 11 days. For 2nd generation (2°), the 1° spheres were harvested, digested with Collagenase and Trypsin into single cells, 1,000 cells/well were plated, and results scored in 10 days. Quantification of the colonies was plotted (1 L; **P<0.01). […]\nFor clonal assays, cultured prostate cancer cells or human prostate cancer cells freshly purified from patient primary tumors were plated at a clonal density (i.e., 100 cells/well) in a 6-well plate. The number of holoclones (33) was counted several days later. […] Floating spheres that arose in 1-2 weeks were counted. […]"}, "human CD44 3'-UTR": {"tested_on": "human CD44 3'-UTR", "assay": "CD44 3'-UTR luciferase reporter assay", "type": "cell-based", "details": "Du145 cells", "experimental": "FIGS. 3A-3J show partial suppression of epithelial to mesenchymal transition by miR-141 and CD44 as a direct target of miR-141. FIGS. 3A-3B show qPCR analysis of epithelial to mesenchymal transition markers in bulk (FIG. 3A) or CD44^+ (FIG. 3B) Du145 cells transfected with the miR-141 oligos (30 nM; 48 h). Results were presented as the relative expression levels over the cells transfected with the NC oligos. […] GAPDH was used as control and the relative protein levels after normalizing to GAPDH and NC controls were indicated below each lane. […] Shown below is the actual sequence in the region with the mutated miR-141 binding sequence indicated in grey (below). […] Shown are representative images. […] Du145 cells were co-transfected with NC or miR-141 oligos (30 nM) together with pBabe empty vector or pBabe-CD44 vector. After 48 h, cells were harvested for invasion assays. […]\nThe human CD44 3′-UTR was amplified from Du145 genomic DNA using primers 5′-[…]-3′ (SEQ ID NO: 2) and 5′-[…]-3′ (SEQ ID NO: 3), as previously described (13). […] The luciferase activities were detected using Duo-luciferase reporter assay system (Promega). Human RAC1, CDC42, CDC42EP3, and ARPC5 3′-UTR luciferase reporter constructs were obtained from SwitchGear Genomics (Menlo Park, Calif.) and luciferase activities were measured per the manufacturer's instructions using LightSwitch luciferase assay kit."}, "CD44": {"tested_on": "CD44", "assay": "CD44 mRNA and protein levels in prostate cancer cells", "type": "cell-based, human", "details": "bulk Du145 and PC3 cells or CD44+ Du145 cells", "experimental": "FIGS. 3A-3J show partial suppression of epithelial to mesenchymal transition by miR-141 and CD44 as a direct target of miR-141. FIGS. 3A-3B show qPCR analysis of epithelial to mesenchymal transition markers in bulk (FIG. 3A) or CD44^+ (FIG. 3B) Du145 cells transfected with the miR-141 oligos (30 nM; 48 h). Results were presented as the relative expression levels over the cells transfected with the NC oligos. […] GAPDH was used as control and the relative protein levels after normalizing to GAPDH and NC controls were indicated below each lane. […] Shown below is the actual sequence in the region with the mutated miR-141 binding sequence indicated in grey (below). […] Shown are representative images. […] Du145 cells were co-transfected with NC or miR-141 oligos (30 nM) together with pBabe empty vector or pBabe-CD44 vector. After 48 h, cells were harvested for invasion assays. Bars, mean±SD. *, P<0.05; **, P<0.01.\nTotal RNA was extracted using microRNA isolation kit (Life Technologies) according to the manufacturer's instructions. microRNA qPCRs were performed using TaqMan microRNA assays (Life Technologies). qPCR data for microRNAs were normalized to RNU48 whereas qPCR data for mRNAs were normalized to GAPDH."}, "[2]": {"tested_on": "RAC1, CDC42, ARPC5 and CDC42EP3", "assay": "Western blotting of Rho GTPase signaling members", "type": "cell-based, human", "details": "Du145 cells, miR-141 over-expression", "experimental": "Du145 cells transfected with NC or miR-141 oligos at the two doses and time intervals indicated were used in Western blotting. Indicated below are relative expression levels (normalized to respective GAPDH and compared to NC) of each protein determined by densitometric scanning of the individual bands. […] Bars, mean±SD. *P<0.05; **P<0.01. […] Du145 cells were co-transfected with NC or miR-141 oligos (30 nM) in combination with pcDNA3.1 (control) vector or pcDNA-RAC1 or pcDNA-CDC42 expression vector. After 48 h, cells were harvested for invasion assays. […] Du145 cells were infected with Lenti-141 or control lentivirus (MOI 10, 48 h) and then harvested to measure the Rho GTPase activities. Bars, mean±SD. *P<0.05. […] Du145 cells were transfected with the antisense oligos to NC or miR-141 (anti-141; 30 nM) and then used in invasion assays (FIG. 5E). In FIG. 5F and FIG. 5G Du145 cells were transfected with 10 nM of scramble siRNA control (siCon) or siRNAs targeting RAC1 (FIG. 5F) or CDC42 (FIG. 5G), either alone or in combination of anti-141 (30 nM). 48 h later, cells were harvested for invasion assays. Bars, mean±SD. *P<0.05; **P<0.01."}}}
{"substance": "miR-141: miR-141 mirVana mimics (Life Technologies); microRNA-141 oligonucleotide may have SEQ ID NO: 1; in some experiments over-expressed by lentiviral vectors (UAACACUGUCUGGUAAAGAUGG; listed as RNA, further chemistry not given here) [miR-141 mirVana mimics (Life Technologies); in some experiments over-expressed by lentiviral vectors]", "values": [{"measurement": "clonal growth", "setting": "[1]; miR-141 overexpression (Lenti-141 MOI 10, 72 h)", "result": "inhibited"}, {"measurement": "serial sphere formation", "setting": "[1]; miR-141 overexpression, CD44+ and bulk HPCa cells, 1st and 2nd generation spheres in Matrigel", "result": "inhibited"}, {"measurement": "luciferase activity, CD44 3'-UTR with mutated miR-141 binding sequence", "setting": "human CD44 3'-UTR", "result": "abrogated the suppressive effect of miR-141"}, {"measurement": "luciferase activity, wild-type CD44 3'-UTR reporter", "setting": "human CD44 3'-UTR; vs negative control oligos", "result": "lower"}, {"measurement": "CD44 mRNA level", "setting": "CD44", "result": "significantly reduced"}, {"measurement": "CD44 protein level", "setting": "CD44", "result": "significantly reduced"}, {"measurement": "protein levels of ARPC5, CDC42EP3, CDC42 and RAC1", "setting": "[2]", "result": "downregulated, to varying degrees"}]}
